# Reference: patent US6251900A, “Heterocyclic compounds and antitumor agent containing the same as active ingredient” (Zenyaku Kogyo Kabushiki Kaisha, priority 1997, dated 2001)
# How the values were obtained:
# [1] = Acute toxicity in BDF1 male mice (Test 3); details: mouse, in vivo, po, orally or abdominally administered, observation for 14 days
# Procedure: The acute toxicity was determined by orally or abdominally administrating the compound 9 or 22 of the present invention, which was adjusted by distilled water added with 1% of hydroxypropyl cellulose, to BDF1 male mice (6-weeks-old, having a body weight of 25±2.5 g) and LD50 was obtained over observation for 14 days. As a result, it was found out that LD50 of any of the compounds was 400-800 mg/kg.
# [2] = test system: MCF-7 cells; assay: Growth inhibition of MCF-7 human breast cancer cells, 72 h culture (Test 1); assay type: cell-based; details: MCF7, 37° C., read-out: 50% Growth inhibition concentrations (GI50)
# Procedure: Used in the test were MCF-7 cells which were established from human breast cancer and were cultured routinely under the conditions of 37° C. and 5% CO2, in RPMI 1640 medium supplemented with 10% fetal calf serum, HEPES buffer solution (25 mM) and kanamycin (0.1 mg/ml). Single cell suspension was prepared by adding trypsin/EDTA to the medium so as to be adjusted to 4.0×10^4 cells/ml. Test compounds were dissolved or suspended in DMSO or RPMI 1640 medium at a concentration of 1.0×10^-4 -1.0×10^-9 M.
# The cell suspension and the sample solution or suspension were filled in a 96-wells microplate at a rate of 0.1 ml of the former and 0.1 ml of the latter per well and cultured at 37° C. for 72 hours in 5% CO2.
# 50% Growth inhibition concentrations (GI50 μM) were calculated from growth inhibitions at various sample concentrations.
# [3] = test system: M5076 mouse reticulum cell sarcoma cells; assay: Tumor growth inhibition, M5076 mouse reticulum cell sarcoma transplanted subcutaneously in BDF1 mice (Test 2); assay type: in vivo; details: abdominally administered for 9 days, tumor weight on day 21
# Procedure: The treated group to which the test sample was administered consisted of seven mice while the control group consisted of ten mice. Six weeks old male mice (BDF1, 25±2.5 g) were employed as host animals.
# M5076 mouse reticulum cell sarcoma cells routinely cultured in abdominal of C57BL/6 male mice were diluted with cold Hanks solution and 1.0×10^6 cells of them were transplanted subcutaneously into left breast of each mouse. The samples prepared by suspending test compounds in 1% hydroxypropyl cellulose (HPC) were abdominally administered for 9 days after the day after the transplantation. After 21 days passed from the transplantation of the tumor, the mice were killed and the tumors were extracted out to measure the tumor weights of the respective groups.
# Effect of sample was calculated as tumor growth inhibition by the following formula:
# Tumor Growth Inhibition (%)=(1-T/C)×100
# T: tumor weight of group with sample administered
# C: tumor weight of control group
SMILES,LD50 at 336 h [1] [mg/kg],GI50 [2] [nM],Tumor Growth Inhibition (%) ([3]; 200 mg/kg),Tumor Growth Inhibition (%) ([3]; 100 mg/kg)
"C[C@@H]1OCCN(c2nc(N3CCOCC3)nc(-n3cnc4ccccc43)n2)[C@H]1C (relative stereo) [compound 9, 2-(benzimidazol-1-yl)-4-(trans-2,3-dimethylmorpholino)-6-morpholino-1,3,5-triazine]",400 to 800,1200,98.6,–
"C[C@@H]1OCCN(c2cc(N3CCOCC3)nc(-n3cnc4ccccc43)n2)[C@H]1C (relative stereo) [compound 22, 2-(benzimidazol-1-yl)-4-(trans-2,3-dimethylmorpholino)-6-morpholinopyrimidine]",400 to 800,2200,–,83.8
